What follows are compounds tested against T1, Human TREX1 enzyme (amino acids 1-242) (Homo sapiens, UniProt Q9NSU2) (assay: Human TREX1 enzymatic assay with dsDNA native oligonucleotide (Picogreen fluorescence)). Conditions: 2 mM dithiothreitol in assay buffer; 50 nM dsDNA oligonucleotide; 30 min preincubation at 25° C.; read-out: TREX1/Human + DTT IC50 AVG.
T1 construct: Human TREX1 enzyme (amino acids 1-242)
T1 sequence (Q9NSU2 1-242): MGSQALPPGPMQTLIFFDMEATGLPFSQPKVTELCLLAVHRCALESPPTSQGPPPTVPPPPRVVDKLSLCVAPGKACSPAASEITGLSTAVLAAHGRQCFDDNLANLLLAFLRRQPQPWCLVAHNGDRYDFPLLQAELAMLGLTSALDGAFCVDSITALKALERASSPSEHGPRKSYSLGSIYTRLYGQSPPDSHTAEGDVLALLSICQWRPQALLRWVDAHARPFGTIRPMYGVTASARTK
Assay type: biochemical
Procedure, shortened: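 TREX1 (0.8–0.16 nM final) preincubated with compound (300 μM–13 nM or 30 μM–1.5 nM, 2% DMSO) 30 min at 25 °C in Tris pH 7.7, 5 mM MgCl2, 2 mM DTT. Annealed dsDNA (50 nM) added for 5–15 min at 25 °C; EDTA quench with Picogreen fluorescence readout.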

Row | Compound | IC50 [µM]
1 | COc1cc(-c2nc3cc(N4CCN(C(C)=O)CC4)ccc3[nH]2)cc(O)c1O [Example 26, 1-(4-(2-(3,4-dihydroxy-5-methoxyphenyl)-1H-benzo[d]imidazol-5-yl)piperazin-1-yl)ethanone] | > 100
2 | COc1cc(-c2nc3c(C)ncnc3[nH]2)cc(O)c1O [Example 41, 3-methoxy-5-(6-methyl-9H-purin-8-yl)benzene-1,2-diol] | > 100
3 | COc1cc(-c2nc3ccccc3n2C2CCC2)c(C)c(O)c1O [Example 168, 4-(1-cyclobutyl-1H-benzo[d]imidazol-2-yl)-6-methoxy-3-methylbenzene-1,2-diol] | 0.1 to 1
4 | COc1cc(-c2nc3cc(N4CCN(C)C(=O)C4)ccc3n2C2(C)COC2)c(F)c(O)c1O [Example 278, 4-(2-(2-fluoro-3,4-dihydroxy-5-methoxyphenyl)-1-(3-methyloxetan-3-yl)-1H-benzo[d]imidazol-5-yl)-1-methylpiperazin-2-one] | ≤ 0.1
5 | COc1cc(-c2nc3ccc(NC(C)=O)cc3n2C2(C)COC2)c(F)c(O)c1O [Example 207, N-[2-(2-fluoro-3,4-dihydroxy-5-methoxyphenyl)-1-(3-methyloxetan-3-yl)-1H-1,3-benzodiazol-6-yl]acetamide] | ≤ 0.1
6 | COc1cc(-c2nc3cc(N)ccc3n2C2CCC2)c(C)c(O)c1O [Example 235, 4-(5-amino-1-cyclobutyl-1H-benzo[d]imidazol-2-yl)-6-methoxy-3-methylbenzene-1,2-diol] | 0.1 to 1
7 | COc1c(C)c(-c2nc3cc(N4CCC4)ccc3n2C2COC2)c(F)c(O)c1O [Example 199, 4-[5-(azetidin-1-yl)-1-(oxetan-3-yl)-1H-1,3-benzodiazol-2-yl]-3-fluoro-6-methoxy-5-methylbenzene-1,2-diol] | 1 to 10
8 | COc1cc(-c2nc3cc(N4CCN(C(=O)c5cccc(-c6ccccc6)c5)CC4)ccc3[nH]2)cc(O)c1O [Example 113, [1,1′-biphenyl]-3-yl(4-(2-(3,4-dihydroxy-5-methoxyphenyl)-1H-benzo[d]imidazol-5-yl)piperazin-1-yl)methanone] | > 100
9 | COc1cc(-c2nc3cc(NC(=O)c4cccnc4)ccc3n2C2(C)COC2)c(F)c(O)c1O [Example 304, N-(2-(2-fluoro-3,4-dihydroxy-5-methoxyphenyl)-1-(3-methyloxetan-3-yl)-1H-benzo[d]imidazol-5-yl)nicotinamide] | 0.1 to 1
10 | COc1cc(-c2nc3ccccc3n2C2COC2)cc(O)c1O [Example 11, 3-methoxy-5-(1-(oxetan-3-yl)-1H-benzo[d]imidazol-2-yl)benzene-1,2-diol] | 10 to 100
11 | COc1cc(-c2nc3cc(NC(=O)c4ccccn4)ccc3n2C2(C)COC2)c(F)c(O)c1O [Example 203, N-[2-(2-fluoro-3,4-dihydroxy-5-methoxyphenyl)-1-(3-methyloxetan-3-yl)-1H-1,3-benzodiazol-5-yl]pyridine-2-carboxamide] | ≤ 0.1
12 | COc1cc(-c2nc3ccc(C(=O)NC4CS(=O)(=O)C4)cc3n2C2(C)COC2)c(F)c(O)c1O [Example 307, N-(1,1-dioxidothietan-3-yl)-2-(2-fluoro-3,4-dihydroxy-5-methoxyphenyl)-1-(3-methyloxetan-3-yl)-1H-benzo[d]imidazole-6-carboxamide] | ≤ 0.1
13 | COc1cc(-c2nc3cc(NC(C)=O)ccc3n2C2(C)COC2)c(C)c(O)c1O [Example 311, N-(2-(3,4-dihydroxy-5-methoxy-2-methylphenyl)-1-(3-methyloxetan-3-yl)-1H-benzo[d]imidazol-5-yl)acetamide] | 0.1 to 1
14 | COc1cc(-c2nc3cc(N4CC(C#N)C4)ccc3[nH]2)cc(O)c1O [Example 138, 1-(2-(3,4-dihydroxy-5-methoxyphenyl)-1H-benzo[d]imidazol-5-yl)azetidine-3-carbonitrile] | > 100
15 | COc1cc(-c2nc3cc(N4CCC4=O)ccc3n2C2(C)COC2)c(F)c(O)c1O [Example 272, 1-(2-(2-fluoro-3,4-dihydroxy-5-methoxyphenyl)-1-(3-methyloxetan-3-yl)-1H-benzo[d]imidazol-5-yl)azetidin-2-one] | 0.1 to 1
16 | Oc1cc(-c2nc3ccccc3n2C2CCC2)cc(OC(F)(F)F)c1O [Example 233, 5-(1-cyclobutyl-1H-benzo[d]imidazol-2-yl)-3-(trifluoromethoxy)benzene-1,2-diol] | > 100
17 | COc1cc(-c2nc3ccc(C(=O)NC4CCN(C)CC4)cc3n2C2(C)COC2)c(F)c(O)c1O [Example 260, 2-(2-fluoro-3,4-dihydroxy-5-methoxyphenyl)-1-(3-methyloxetan-3-yl)-N-(1-methylpiperidin-4-yl)-1H-1,3-benzodiazole-6-carboxamide] | 0.1 to 1
18 | Oc1cc(-c2nc3ccccc3n2C2COC2)c2c(c1O)OCCC2 [Example 163, 5-(1-(oxetan-3-yl)-1H-benzo[d]imidazol-2-yl)chroman-7,8-diol] | 0.1 to 1
19 | COc1cc(-c2nc3cc(N4CCNC4=O)ccc3n2C2(C)COC2)c(F)c(O)c1O [Example 198, 1-(2-(2-fluoro-3,4-dihydroxy-5-methoxyphenyl)-1-(3-methyloxetan-3-yl)-1H-benzo[d]imidazol-5-yl)imidazolidin-2-one] | ≤ 0.1
20 | COc1cc(-c2nc3ccc(C(=O)NC4CC4)cc3n2C2(C)COC2)c(F)c(O)c1O [Example 253, N-cyclopropyl-2-(2-fluoro-3,4-dihydroxy-5-methoxyphenyl)-1-(3-methyloxetan-3-yl)-1H-benzo[d]imidazole-6-carboxamide] | ≤ 0.1
21 | COc1cc(-c2nc3ccncc3[nH]2)cc(C(=O)O)c1O [Example 5, 2-hydroxy-5-(3H-imidazo[4,5-c]pyridin-2-yl)-3-methoxybenzoic acid] | 1 to 10
22 | COc1ccc2c(c1)CCN(c1ccc3[nH]c(-c4cc(O)c(O)c(OC)c4)nc3c1)C2 [Example 67, 3-methoxy-5-(5-(6-methoxy-3,4-dihydroisoquinolin-2(1H)-yl)-1H-benzo[d]imidazol-2-yl)benzene-1,2-diol] | > 100
23 | COc1cc(-c2nc3ccc(S(=O)(=O)Nc4ccccc4)cc3n2C2COC2)cc(O)c1O [Example 39, 2-(3,4-dihydroxy-5-methoxyphenyl)-1-(oxetan-3-yl)-N-phenyl-1H-benzo[d]imidazole-6-sulfonamide] | 10 to 100
24 | COc1cc(-c2nc3cc(N4CCN(C)CC4)ccc3n2C2COC2)cc(O)c1O [Example 60, 3-methoxy-5-(5-(4-methylpiperazin-1-yl)-1-(oxetan-3-yl)-1H-benzo[d]imidazol-2-yl)benzene-1,2-diol] | 10 to 100
25 | COc1cc(-c2nc3cc(N4CCN(C(=O)c5cccc(C(=O)O)c5)CC4)ccc3[nH]2)cc(O)c1O [Example 101, 3-(4-(2-(3,4-dihydroxy-5-methoxyphenyl)-1H-benzo[d]imidazol-5-yl)piperazine-1-carbonyl)benzoic acid] | 10 to 100
26 | COc1cc(-c2nc3ccc(C(=O)NC45CC(C4)C5)cc3n2C2(C)COC2)c(F)c(O)c1O [Example 249, N-(bicyclo[1.1.1]pentan-1-yl)-2-(2-fluoro-3,4-dihydroxy-5-methoxyphenyl)-1-(3-methyloxetan-3-yl)-1H-benzo[d]imidazole-6-carboxamide] | ≤ 0.1
27 | CCn1c(-c2cc(O)c(O)c(OC(C)C)c2)nc2cccnc21 [Example 29, 5-(3-ethyl-3H-imidazo[4,5-b]pyridin-2-yl)-3-isopropoxybenzene-1,2-diol] | > 100

— patent US20230234943A1, “TREX1 INHIBITORS AND USES THEREOF” (Tempest Therapeutics, Inc., priority 2020, published 2023)
